For five compounds, EC50 and Emax results are on record in patent publication US20260176320A1, “MODULATORS OF G-PROTEIN COUPLED RECEPTORS” (priority 2018, published 2026).

Where two headings read alike, the source gives them in different places. A value given as a limit tells only on which side of the number the result lay.

Holding throughout (assay type): cell-based
Assay [1] addresses T1, GLP-1R (Homo sapiens, UniProt P43220). As to the kind of experiment: PathHunter β-arrestin assay. An outline of the steps: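 Cells (5,000/well) plated overnight, then exposed to a 22-point 2-fold agonist dilution series in medium with 0.2% BSA for 90 min at 37 °C, 5% CO2. PathHunter detection reagent added; after 3 h at room temperature in the dark, luminescence read.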
Assay [2] has as its target T1, GLP-1R. As to the kind of experiment: HitHunter cAMP assay (GLP-1R). The following applies: cAMP; for Emax: read-out: (Emax) GLP-1R. In outline: (§1)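 Suspension cells (10,000/well) in HBSS with 10 mM HEPES, 625 μM IBMX, 0.2% BSA exposed to 22-point 2-fold agonist series in duplicate for 30 min at room temperature. cAMP measured by antibody immunocompetition with overnight development, luminescence read-out.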

The next assay has as its target T2, GIP-R (Homo sapiens, UniProt P48546).
T2 sequence (P48546 22-466): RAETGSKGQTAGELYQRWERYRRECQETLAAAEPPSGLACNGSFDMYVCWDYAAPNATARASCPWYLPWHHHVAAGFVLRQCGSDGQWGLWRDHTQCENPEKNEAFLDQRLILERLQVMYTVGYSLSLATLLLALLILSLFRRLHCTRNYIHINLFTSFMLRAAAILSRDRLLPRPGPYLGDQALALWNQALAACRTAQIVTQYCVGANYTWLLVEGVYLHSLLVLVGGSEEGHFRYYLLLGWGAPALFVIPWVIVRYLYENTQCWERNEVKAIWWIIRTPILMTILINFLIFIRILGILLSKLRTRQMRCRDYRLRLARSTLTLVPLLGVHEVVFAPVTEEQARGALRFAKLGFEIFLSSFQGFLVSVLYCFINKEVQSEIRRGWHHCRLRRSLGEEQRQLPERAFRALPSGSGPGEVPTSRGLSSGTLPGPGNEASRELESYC
As to the kind of experiment: HitHunter cAMP assay (GIP-R). Particulars: cAMP; for Emax: read-out: (Emax) GIP-R. In outline: as §1
(In general: cAMP levels reflect the balance of adenylyl cyclase and phosphodiesterase activity.)

The mark [3] stands for this setting: PathHunter β-arrestin assay, read-out: β-arrestin activity EC50.
Where [4] appears, read: Table 3A, read-out: EC50 GLP-1R/nM.
The mark [5] stands for this setting: Table 3A, read-out: EC50 GIP-R/nM.

T1 sequence (P43220 24-463): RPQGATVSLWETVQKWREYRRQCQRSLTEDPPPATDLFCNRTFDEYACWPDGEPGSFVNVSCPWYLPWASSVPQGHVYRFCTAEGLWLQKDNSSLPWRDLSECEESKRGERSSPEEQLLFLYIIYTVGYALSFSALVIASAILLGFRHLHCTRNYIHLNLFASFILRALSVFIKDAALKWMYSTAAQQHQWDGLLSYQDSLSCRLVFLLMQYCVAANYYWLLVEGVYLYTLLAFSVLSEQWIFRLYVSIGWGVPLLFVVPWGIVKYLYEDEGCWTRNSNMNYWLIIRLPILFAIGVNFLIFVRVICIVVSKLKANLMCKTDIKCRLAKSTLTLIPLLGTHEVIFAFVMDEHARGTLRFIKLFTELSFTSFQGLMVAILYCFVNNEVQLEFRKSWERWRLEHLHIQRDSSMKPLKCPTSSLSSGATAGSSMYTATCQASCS

`CCCCCCCCCCCCCCCC(=O)N[C@@H](CCC(=O)NCCCC[C@H](NC(=O)[C@H](CO)NC(=O)[C@@H]1CCCN1C(=O)[C@@H]1CCCN1C(=O)[C@@H]1CCCN1C(=O)[C@H](C)NC(=O)CNC(=O)[C@H](CO)NC(=O)[C@H](CO)NC(=O)[C@@H]1CCCN1C(=O)CNC(=O)CNC(=O)[C@H](C)NC(=O)[C@H](CC(C)C)NC(=O)[C@H](CC(C)C)NC(=O)[C@H](Cc1c[nH]c2ccccc12)NC(=O)[C@H](CC(N)=O)NC(=O)[C@@H](NC(=O)[C@H](Cc1ccccc1)NC(=O)[C@H](CCC(=O)O)NC(=O)C(C)(C)NC(=O)[C@H](C)NC(=O)[C@H](C)NC(=O)[C@H](CCC(N)=O)NC(=O)[C@H](CCCCN)NC(=O)[C@H](CC(=O)O)NC(=O)[C@H](CC(C)C)NC(=O)[C@H](Cc1ccc(O)cc1)NC(=O)[C@@H](NC(=O)[C@H](CO)NC(=O)[C@H](Cc1ccc(O)cc1)NC(=O)[C@H](CC(=O)O)NC(=O)[C@H](CO)NC(=O)[C@@H](NC(=O)[C@H](Cc1ccccc1)NC(=O)[C@@H](NC(=O)CNC(=O)[C@H](CCC(=O)O)NC(=O)C(C)(C)NC(=O)CCN1CCCCC1=O)[C@@H](C)O)[C@@H](C)O)[C@@H](C)CC)C(C)C)C(N)=O)C(=O)O` [Compound 210]: the figures for the EC50 on GLP-1R [1] (setting [3]), at GLP-1R [2] (setting [4]) and on GIP-R (setting [5]) were 10 to 1000 nM, less than 0.1 nM and 10 to 100 nM, respectively. Also, the maximal response (Emax) (as a rule, the greatest response seen or fitted, relative to the assay's reference) came to 90% on GLP-1R [2] (Table 3A) and 40% at GIP-R (Table 3A).
For `CCCCCCCCCCCCCCCC(=O)NCCCC[C@H](NC(=O)[C@H](CO)NC(=O)[C@@H]1CCCN1C(=O)[C@@H]1CCCN1C(=O)[C@@H]1CCCN1C(=O)[C@H](C)NC(=O)CNC(=O)[C@H](CO)NC(=O)[C@H](CO)NC(=O)[C@@H]1CCCN1C(=O)CNC(=O)CNC(=O)[C@H](C)NC(=O)[C@H](CC(C)C)NC(=O)[C@H](CC(C)C)NC(=O)[C@H](Cc1c[nH]c2ccccc12)NC(=O)[C@H](CC(N)=O)NC(=O)[C@@H](NC(=O)[C@H](Cc1ccccc1)NC(=O)[C@H](CCC(=O)O)NC(=O)C(C)(C)NC(=O)[C@H](C)NC(=O)[C@H](C)NC(=O)[C@H](CCC(N)=O)NC(=O)[C@H](CCCCN)NC(=O)[C@H](CC(=O)O)NC(=O)[C@H](CC(C)C)NC(=O)[C@H](Cc1ccc(O)cc1)NC(=O)[C@@H](NC(=O)[C@H](CO)NC(=O)[C@H](Cc1ccc(O)cc1)NC(=O)[C@H](CC(=O)O)NC(=O)[C@H](CO)NC(=O)[C@@H](NC(=O)[C@H](Cc1ccccc1)NC(=O)[C@@H](NC(=O)CNC(=O)[C@H](CCC(=O)O)NC(=O)CSCC(=O)NCCN1C(=O)CSC1=O)[C@@H](C)O)[C@@H](C)O)[C@@H](C)CC)C(C)C)C(N)=O` [Compound 60], the EC50 at GLP-1R [1] (setting [3]) was greater than 1000 nM; on GLP-1R [2] (Table 3, read-out: EC50 GLP-1R/nM), 0.1 to 1 nM; at GLP-1R [2] (setting [4]), 0.1 to 1 nM; at GIP-R (Table 3, read-out: EC50 GIP-R/nM), 1 to 10 nM; on GIP-R (setting [5]), 1 to 10 nM. The Emax is 98% at GLP-1R [2] (Table 3), 98% at GLP-1R [2] (Table 3A), 37% on GIP-R (Table 3) and 37% at GIP-R (Table 3A).
As to `CCCCCCCCCCCCCCCC(=O)N[C@@H](CCC(=O)NCCCC[C@H](NC(=O)[C@H](CO)NC(=O)[C@@H]1CCCN1C(=O)[C@@H]1CCCN1C(=O)[C@@H]1CCCN1C(=O)[C@H](C)NC(=O)CNC(=O)[C@H](CO)NC(=O)[C@H](CO)NC(=O)[C@@H]1CCCN1C(=O)CNC(=O)CNC(=O)[C@H](C)NC(=O)[C@H](CC(C)C)NC(=O)[C@H](CC(C)C)NC(=O)[C@H](Cc1c[nH]c2ccccc12)NC(=O)[C@H](CC(N)=O)NC(=O)[C@@H](NC(=O)[C@H](Cc1ccccc1)NC(=O)[C@H](CCC(=O)O)NC(=O)C(C)(C)NC(=O)[C@H](C)NC(=O)[C@H](C)NC(=O)[C@H](CCC(N)=O)NC(=O)[C@H](CCCCN)NC(=O)[C@H](CC(=O)O)NC(=O)[C@H](CC(C)C)NC(=O)[C@H](Cc1ccc(O)cc1)NC(=O)[C@@H](NC(=O)[C@H](CO)NC(=O)[C@H](Cc1ccc(O)cc1)NC(=O)[C@H](CC(=O)O)NC(=O)[C@H](CO)NC(=O)[C@@H](NC(=O)[C@H](Cc1ccccc1)NC(=O)[C@@H](NC(=O)CNC(=O)[C@H](CCC(=O)O)NC(=O)[C@@H](C)NC(=O)CN1CCCCC1=O)[C@@H](C)O)[C@@H](C)O)[C@@H](C)CC)C(C)C)C(N)=O)C(=O)O` [Compound 213], the EC50 is 10 to 1000 nM at GLP-1R [1] (setting [3]), less than 0.1 nM on GLP-1R [2] (setting [4]) and 0.1 to 1 nM on GIP-R (setting [5]). The Emax came to 90% on GLP-1R [2] (Table 3A) and 59% at GIP-R (Table 3A).
Regarding `CC[C@H](C)[C@H](NC(=O)[C@H](CO)NC(=O)[C@H](Cc1ccc(O)cc1)NC(=O)[C@H](CC(=O)O)NC(=O)[C@H](CO)NC(=O)[C@@H](NC(=O)[C@H](Cc1ccccc1)NC(=O)[C@@H](NC(=O)CNC(=O)[C@H](CCC(=O)O)NC(=O)C(C)(C)C(=O)NCCCCN1C(=O)c2ccccc2C1=O)[C@@H](C)O)[C@@H](C)O)C(=O)N[C@@H](Cc1ccc(O)cc1)C(=O)N[C@@H](CC(C)C)C(=O)N[C@@H](CC(=O)O)C(=O)N[C@@H](CCCCN)C(=O)N[C@@H](CCC(N)=O)C(=O)N[C@@H](C)C(=O)N[C@@H](C)C(=O)NC(C)(C)C(=O)N[C@@H](CCC(=O)O)C(=O)N[C@@H](Cc1ccccc1)C(=O)N[C@H](C(=O)N[C@@H](CC(N)=O)C(=O)N[C@@H](Cc1c[nH]c2ccccc12)C(=O)N[C@@H](CC(C)C)C(=O)N[C@@H](CC(C)C)C(=O)N[C@@H](C)C(=O)NCC(=O)NCC(=O)N1CCC[C@H]1C(=O)N[C@@H](CO)C(=O)N[C@@H](CO)C(=O)NCC(=O)N[C@@H](C)C(=O)N1CCC[C@H]1C(=O)N1CCC[C@H]1C(=O)N1CCC[C@H]1C(=O)N[C@@H](CO)C(=O)N[C@@H](CCCCN)C(N)=O)C(C)C` [Compound 141], the EC50 on GLP-1R [1] is greater than 1000 nM; at GLP-1R [2] (EC50 GLP-1R/nM, Table 3), 1 to 10 nM; on GLP-1R [2] (EC50 GLP-1R/nM, Table 3A), 1 to 10 nM; on GIP-R (EC50 GIP-R/nM, Table 3) it was 10 to 100 nM; at GIP-R (EC50 GIP-R/nM, Table 3A), 10 to 100 nM. Besides, the Emax at GLP-1R [2] (Table 3) was in the range of 98 to 100%; on GLP-1R [2] (Table 3A) it was 98 to 100%; on GIP-R (Table 3), 46 to 50%; at GIP-R (Table 3A), 46 to 50%.
Take `CCCCCCCCCCCCCCCC(=O)N[C@@H](CCC(=O)NCCCC[C@H](NC(=O)[C@H](CO)NC(=O)[C@@H]1CCCN1C(=O)[C@@H]1CCCN1C(=O)[C@@H]1CCCN1C(=O)[C@H](C)NC(=O)CNC(=O)[C@H](CO)NC(=O)[C@H](CO)NC(=O)[C@@H]1CCCN1C(=O)CNC(=O)CNC(=O)[C@H](C)NC(=O)[C@H](CC(C)C)NC(=O)[C@H](CC(C)C)NC(=O)[C@H](Cc1c[nH]c2ccccc12)NC(=O)[C@H](CC(N)=O)NC(=O)[C@@H](NC(=O)[C@H](Cc1ccccc1)NC(=O)[C@H](CCC(=O)O)NC(=O)C(C)(C)NC(=O)[C@H](C)NC(=O)[C@H](C)NC(=O)[C@H](CCC(N)=O)NC(=O)[C@H](CCCCN)NC(=O)[C@H](CC(=O)O)NC(=O)[C@H](CC(C)C)NC(=O)[C@H](Cc1ccc(O)cc1)NC(=O)[C@@H](NC(=O)[C@H](CO)NC(=O)[C@H](Cc1ccc(O)cc1)NC(=O)[C@H](CC(=O)O)NC(=O)[C@H](CO)NC(=O)[C@@H](NC(=O)[C@H](Cc1ccccc1)NC(=O)[C@@H](NC(=O)CNC(=O)[C@H](CCC(=O)O)NC(=O)CSCC(=O)NCCN1C(=O)SC(C)(C)C1=O)[C@@H](C)O)[C@@H](C)O)[C@@H](C)CC)C(C)C)C(N)=O)C(=O)O` [Compound 94]: the EC50 at GLP-1R [1] was greater than 1000 nM; on GLP-1R [2] (EC50 GLP-1R/nM, Table 3) it was 1 to 10 nM; on GLP-1R [2] (EC50 GLP-1R/nM, Table 3A), 1 to 10 nM; at GIP-R (EC50 GIP-R/nM, Table 3), 1 to 10 nM; at GIP-R (EC50 GIP-R/nM, Table 3A), 1 to 10 nM. Also, the Emax at GLP-1R [2] (Table 3) came to 89%; on GLP-1R [2] (Table 3A), 89%; on GIP-R (Table 3) it was 46%; at GIP-R (Table 3A) it was 46%.
